Results reported in paper PMC10188280 (Inorganic chemistry, 2022).

Tests used:
SK-OV-3 (Ovary) = test: MTT antiproliferative assay, 72 h; format: cell-based; conditions: read-out: IC50 values SK-OV-3 (Ovary), 72 h exposure, mean ± SDM, n = 3
HT-29 (Colon) = test: MTT antiproliferative assay, 72 h; format: cell-based; conditions: read-out: IC50 values HT-29 (Colon), 72 h exposure, mean ± SDM, n = 3
MDA-MB-231 (Breast) = test: MTT antiproliferative assay, 72 h; format: cell-based; conditions: read-out: IC50 values MDA-MB-231 (Breast), 72 h exposure, mean ± SDM, n = 3
Caco-2 (Colon) = test: MTT antiproliferative assay, 72 h; format: cell-based; conditions: read-out: IC50 values Caco-2 (Colon), 72 h exposure, mean ± SDM, n = 3
MCF-7 (Breast) = test: MTT antiproliferative assay, 72 h; format: cell-based; conditions: read-out: IC50 values MCF-7 (Breast), 72 h exposure, mean ± SDM, n = 3
A2780 (Ovary) = test: MTT antiproliferative assay, 72 h; format: cell-based; conditions: read-out: IC50 values A2780 (Ovary), 72 h exposure, mean ± SDM, n = 3
[1] = unsubstituted (lacking the N4 phenyl) compound; cited from earlier work
A2780 cells = test: Cell cycle analysis by flow cytometry; format: cell-based; conditions: 24 h, lower of two concentrations close to 24-h IC50

IC50 (SK-OV-3 (Ovary)) [µM] | IC50 (HT-29 (Colon)) [µM] | IC50 (MDA-MB-231 (Breast)) [µM] | IC50 (Caco-2 (Colon)) [µM] | IC50 (MCF-7 (Breast)) [µM] | IC50 (A2780 (Ovary)) [µM] | SMILES | pKa [1] | cell cycle distribution at the lower concentration (A2780 cells)
2.3 ± 0.2 | 9.5 ± 0.5 | 4.8 ± 0.2 | 7.3 ± 0.8 | 1.74 ± 0.04 | 1.9 ± 0.1 | Oc1ccccc1C=NNC(=S)Nc1ccccc1 [STC1] | – | –
– | – | – | – | – | – | NC(=S)N/N=C/c1ccccc1O [salicylaldehyde thiosemicarbazone] | 8.8 | –
9.5 ± 0.5 | 2.3 ± 0.2 | 4.58 ± 0.03 | 3.9 ± 0.5 | 22.5 ± 0.3 | 1.9 ± 0.1 | CC(=O)N(O)CCCCCNC(=O)CCC(=O)N(O)CCCCCNC(=O)CCC(=O)N(O)CCCCCN [DFO] | – | a larger fraction of cells was able to proceed to the S phase but remained unable to reach the G2 phase
